We go through eight molecules from publication PMC9119314 (Frontiers in Pharmacology, 2022).

In series [1] the test system is P. berghei sporozoites. Briefly: P. berghei liver-stage assay (sporozoites in Hep G2-A16-CD81 cells, luciferase). It is filed as cell-based, Plasmodium berghei. The note with it: Plasmodium berghei, HepG2-A16-CD81, 48 h, read-out: Activity against the P. berghei liver stage, IC50. The protocol: (§1) Briefly, 3000 Hep G2-A16-CD81 cells/well were seeded in 1536-well plates (Greiner Bio). 50 nL of the test and control compound diluted in DMSO was added and incubated for 24 h. […] The plates were centrifuged for 5 min at 330 × g and incubated at 37°C. Forty-eight hours post infection, 2 μL of luciferin reagent (Promega BrightGlo) was added to each well, and the luciferase activity was detected using a Perkin Elmer Envision plate reader. […] To counter-screen for cellular toxicity, Hep G2-A16-CD81 cells were seeded as above for the sporozoite liver-stage assay but in the absence of sporozoites. Toxicity measurements were performed by adding Promega CellTiterGlo® (2 μL), followed by luminescence measurements. Curve fitting was done as described above using puromycin (25 μM) as a positive control and DMSO as negative control wells.

For series [2], the system named is P. knowlesi A1-H.1. Put plainly: In vitro antiplasmodial activity, P. knowlesi A1-H.1 (SYBR Green I). It is filed as cell-based, Plasmodium knowlesi. The note with it: Plasmodium knowlesi, 27 h, read-out: Activity against P. knowlesi A1-H.1, IC50, 27 h, ± SD. How it is done: (§2) P. falciparum (3D7 clone) and P. knowlesi (A1-H.1 clone) were maintained in culture in RPMI 1640 supplemented with 25 mM HEPES, 25 mM NaHCO3, 10 mM D-glucose, 2 mM L-glutamine, 50 mg/L hypoxanthine, 25 mg/L gentamicin sulfate, 5 g/L Albumax II, and 10% (v/v) equine serum (Thermo Fisher Scientific, 26-050-088). The P. falciparum (3D7) and P. knowlesi (A1-H.1) parasites were grown in human A^+ red blood cells (National Health Blood and Transplant, United Kingdom). The parasites were incubated in sealed flasks at 37°C under a culture gas mixture of 96% N2, 3% CO2, and 1% O2. ([van Schalkwyk et al., 2019]). The compounds were initially dissolved in DMSO prior to diluting in RPMI. All experiments were initiated using unsynchronized parasites with both the parasitemia and hematocrit set to 1%. Drug susceptibility assays were set up in 96-well, flat-bottom microplates in a final volume of 200 μL, as described previously ([van Schalkwyk et al., 2017]). The controls were included for the background fluorescence (0% viability; parasites exposed to a supralethal 10 μM chloroquine concentration) and 100% growth (parasites in drug-free wells). The plates were incubated for one complete life cycle (27 h for P. knowlesi or 48 h for P. falciparum in vitro) at 37°C in a modular incubation chamber (Billups-Rothenburg Inc.) under the culture gas. Upon termination of the assay, the plates were stored at −20°C overnight. The SYBR Green I fluorescent method was used to measure parasite survival ([Bennett et al., 2004]; [Smilkstein et al., 2004]). After the microplates were thawed, 100 μL from each well was transferred into a duplicate plate. To this was added 100 μL of SYBR green solution [SYBR Green I (Thermo Fisher Scientific, S7563), diluted 1:5000 in a lysis buffer made of 20 mM Tris, 5 mM EDTA, 0.008% (w/v) saponin, 0.08% (v/v) Triton X-100, pH 7.5]. The plates were stored in the dark for 1 h before fluorescence was read at a 490 nm excitation wavelength and a 520 nm emission wavelength on a Spectramax M3 microplate reader (Molecular Devices) ([van Schalkwyk et al., 2017]). The background fluorescence (wells with parasites at 0% viability) was subtracted from all drug assay wells, and the parasite proliferation was determined as a percentage of the fluorescence in the drug-free control wells.

Series [3] deals with P. falciparum K1. Set-up: method as in Onyeibor et al., 2005. The note with it: strain K1; ref Onyeibor et al., 2005; read-out: Activity against P. falciparum K1, IC50; cited from earlier work.
The nature of series [4]: Acute oral toxicity in mice. It is filed as in vivo. The note with it: oral, 20, 50 and 100 mg/kg/dose × 3 consecutive days; up to 100 mg/kg/dose; 2 as hydrochloride, 4–6 as citrate. How it is done: Female NIH Swiss mice aged 6–12 weeks were used (Envigo, Blackthorn, United Kingdom). The mice were kept in cages housed in isolation cabinets in an air-conditioned room with regular alternating cycles of light and darkness. They received Teklad 2018 diet (Envigo, Blackthorn, United Kingdom) and water ad libitum. All animal procedures were carried out under a project license issued by the UK Home Office, and UK National Cancer Research Institute Guidelines for the Welfare of Animals were followed throughout. […] A group of two untreated control animals was included at each dose level. Following treatment, the body weight was measured on a regular basis, and behavior and general appearance were monitored visually to assess for deleterious effects (e.g., dehydration, impaired mobility, hunched posture, a low body temperature, ulceration, and significant bodyweight loss), with any effects during the study recorded. […] If no deleterious effects were seen after at least 18 days of study, then the animals were sacrificed, and the dose was considered non-toxic.

The test system of series [5] is P. berghei. The note with it: I.P., 25 mg/kg; ref Onyeibor et al., 2005; cited from earlier work.
Series [6] has as its system P. falciparum 3D7. Briefly: In vitro antiplasmodial activity, P. falciparum 3D7 (SYBR Green I). Type of series: cell-based. The note with it: Plasmodium falciparum, read-out: Activity against P. falciparum 3D7, IC50. How it is done:
as §2

Series [7] relates to Hep G2-A16-CD81 cells. Briefly: Hep G2 cellular toxicity counter-screen (CellTiterGlo). It is filed as cell-based. The note with it: HepG2-A16-CD81, no sporozoites, ± SE, read-out: Activity against Hep G cells. How it is done: as §1
On the technique in general: A counterscreen serves to expose hits that act by an unwanted route or on another target.

For series [8], the system named is P. falciparum (NF54-Mal8p1.16-GFP-Luc) late-stage gametocytes. Put plainly: microbe, parasite or virus in culture. The note with it: Plasmodium falciparum; for inhibition at 5 µM: NF54, read-out: Inhibition of late-stage gametocytes. Type of series: cell-based, Plasmodium falciparum. How it is done:
Gametocytes were produced as per [Reader et al. (2015]; [2021)] from P. falciparum NF54-Mal8p1.16-GFP-Luc ([Adjalley et al., 2011]), and each batch was validated for viability and functionality before use. […] Drug assays were set up on day 10 (representing late gametocytes, >90% stage IV/V gametocytes) using a 2–3% gametocytemia, 1.5% hematocrit culture. The drug pressure was for 48 h under stationary, hypoxic conditions (90% N2, 5% O2, and 5% CO2) at 37°C. Luciferase activity was determined in 30 μL parasite lysates by adding 30 μL luciferin substrate (Promega Luciferase Assay System) at room temperature and detection of resultant bioluminescence at an integration constant of 10 s with the GloMax®-Multi + Detection System with Instinct® Software. Methylene blue (5 μM) and an internal control (MMV390048, 5 μM) were routinely included as controls.

For series [9], the system named is A2780/ADR cells. Briefly: Chemosensitivity MTT assay, doxorubicin-resistant A2780/ADR. It is filed as cell-based. The note with it: Homo sapiens, 96 h, ± SE, read-out: Activity against A2780/ADR cells, IC50. How it is done:
(§3) A modified MTT assay was used ([Shnyder et al., 2008]). Cells (2 × 10^4/ml) were inoculated into each well of a 96-well plate and incubated for 24 h at 37°C in a humidified atmosphere containing 5% CO2. Compounds were then added at a range of concentrations to each well, and the plates were then incubated for a further 96 h. After 96 h, the culture medium was removed and 200 μL of 0.5 mg ml^–1 MTT solution (Sigma) in the complete medium was added to each well. Following a further 4 h incubation, the solution was removed from each well and 150 μL of DMSO was added to solubilize the formazan crystals resulting from MTT conversion. The absorbance values for the resulting solutions were read at 540 nm on an Azure 96-well microplate reader (Azure Biosynstems Inc.), and the cell survival was calculated as the absorbance of treated cells divided by the control.
For orientation: Tetrazolium dyes change colour on reduction, which living cells bring about.

Series [10] deals with A2780/WT cells. Put plainly: Chemosensitivity MTT assay, A2780 wild type. The note with it: ± SE, read-out: Activity against A2780/WT cells, IC50. Type of series: cell-based, human. The protocol: as §3, with “The chemosensitivity of compounds 3–6 was assessed in the wild-type immortalized human ovarian adenocarcinoma cell line A2780 and its daughter cell lines, which are resistant to the standard cancer chemotherapeutics doxorubicin (A2780/ADR) and cisplatin (A2780/CIS, all cell lines from ECACC, Salisbury, United Kingdom). A modified” for “A modified”

For series [11], the system named is P. falciparum K1. Put plainly: In vitro antiplasmodial activity, P. falciparum K1 (lactate dehydrogenase assay). It is filed as cell-based, Plasmodium falciparum. The note with it: Plasmodium falciparum, read-out: Activity against P. falciparum K1, IC50. The protocol: P. falciparum (K1 clone) was maintained in human erythrocytes prepared from the donated blood samples (blood groups unknown, Ethical Tissue, University of Bradford), suspended in the RPMI 1640 medium as previously described ([Wright et al., 2001]), except that serum was replaced with Albumax II, [5% (^w/v)]. […] Twofold serial dilutions were made in 96-well microtiter plates in duplicate, and infected erythrocytes were added to give a final volume of 100 µL with 2.5% hematocrit and 1% parasitemia. Chloroquine diphosphate was used as a positive control, and uninfected and infected erythrocytes without compounds were included in each test. The plates were placed into a modular incubator; gassed with 93% nitrogen, 3% oxygen, and 4% carbon dioxide; and incubated at 37°C for 48 h. The parasite growth was assessed by measuring lactate dehydrogenase activity as described by [Makler et al. (1993)]. The reagent used contained the following in each mL: acetylpyridine adenine dinucleotide (APAD), 0.74 mg; lithium lactate, 19.2 mg; diaphorase, 0.1 mg; Triton X-100, 2 μL; nitroblue tetrazolium, 1 mg; and phenazine ethosulphate, 0.5 mg. Fifty microliter of this reagent was added to each well and mixed; plates were incubated for 15 min at 37°C. The optical densities were read at 550 nm using an Azure 96-well microplate reader (Azure Biosystems Inc.), and % inhibition of growth was calculated by comparison with the control values. IC50 values were determined using linear regression analysis (Microsoft Excel). A minimum of three separate determinations was carried out for each compound.

Series [12] deals with A2780/cis cells. Briefly: Chemosensitivity MTT assay, cisplatin-resistant A2780/CIS. The note with it: 96 h, ± SE, read-out: Activity against A2780/cis cells, IC50. Type of series: cell-based, human. How it is done:
as §3, with “The chemosensitivity of compounds 3–6 was assessed in the wild-type immortalized human ovarian adenocarcinoma cell line A2780 and its daughter cell lines, which are resistant to the standard cancer chemotherapeutics doxorubicin (A2780/ADR) and cisplatin (A2780/CIS, all cell lines from ECACC, Salisbury, United Kingdom). A modified” for “A modified”

Series [13] concerns T. brucei bloodstream forms (strain 427, derivative 221). Briefly: In vitro activity against T. brucei bloodstream forms (resazurin). Type of series: cell-based, Trypanosoma brucei. The note with it: Trypanosoma brucei, bloodstream forms, hydrochloride salts except 6 (citrate), ± SE. How it is done: Bloodstream form T. brucei (strain 427, derivative 221) was maintained in modified Iscove’s medium, as described previously ([Taylor et al., 2013]). […] The parasites were diluted to 1 × 10^4 ml^−1, the compound was added at a range of concentrations, and the plates were incubated at 37°C in 5% CO2 for 48 h. Resazurin was then added to each well, and the plates were incubated for a further 16 h. Fluorescence intensities were determined using a BMG FLUOstar Omega plate reader (excitation 545 nm, emission 590 nm), and data were analyzed using Graph Pad Prism 9.0 software. […]
On the technique in general: Alamar Blue is a resazurin reagent that responds to reducing activity.

SMILES strings stand for the structures. “Also recorded” adds a separate entry of the source. Like-named read-outs stand apart in the source and are kept apart here.

`O=C1C(O)=C([C@H]2CC[C@H](c3ccc(Cl)cc3)CC2)C(=O)c2ccccc21` [Atovaquone, reference compound]: the IC50 in [1] was determined as 0.383 nM.

As to `Cn1c2c3cc(Br)ccc3nc-2cc2cc(Br)ccc21` [Compound 2, 2,7-dibromocryptolepine], the IC50 in series [2] is 30 ± 4.5 nM; in [3] it was 49 ± 20 nM; in [6] (chloroquine-sensitive strain 3D7, 48 h) it was 30 ± 6 nM; in series [7] it was 4940 ± 1810 nM; in series [8] (NF54, 48 h, read-out: Activity against late-stage gametocytes IC50), 2000 ± 170 nM. Besides, in series [4], the “Acute oral toxicity in mice” value was “No toxicity was seen; also recorded: not toxic”. In series [5], the “Suppression of parasitemia in mice” value is given as 90%. In addition, in series [5], the “Toxicity to mice in the antimalarial test” value is on record as “without apparent toxicity”.

In general, inhibition refers to how much of the control response was suppressed. Turning to `CN(C)c1ccc2nc3ccc(=[N+](C)C)cc-3sc2c1` [Methylene blue, reference compound], the inhibition at 5 µM in series [8] was found to be 96%.

With `COc1cccc2c1C(=O)c1c(O)c3c(c(O)c1C2=O)C[C@@](O)(C(=O)CO)C[C@@H]3O[C@H]1C[C@H](N)[C@H](O)[C@H](C)O1` [Doxorubicin, reference compound], the IC50 in [9] is 3030 ± 350 nM; in series [10] (Homo sapiens, A2780, 96 h), 70 ± 60 nM.

For `CCN(CC)CCCC(C)Nc1ccnc2cc(Cl)ccc12` (stereo not drawn) [Chloroquine diphosphate, reference compound], the IC50 is 20 ± 3 nM in series [2]; 12 ± 3 nM in series [6] (3D7, 48 h); 350 ± 140 nM in series [11] (K1, 48 h).

Regarding `CS(=O)(=O)c1ccc(-c2cnc(N)c(-c3ccc(C(F)(F)F)nc3)c2)cc1` [MMV 390048, reference compound], the inhibition at 5 µM in series [8] stood at 96.2%.

A word on the IC90: it is the point of the concentration-response curve where the effect stands at 90%. Regarding `C[n+]1c2ccccc2cc2[n-]c3ccc(Br)cc3c21` [Compound 3, 7-Bromocryptolepine], the IC50 in [12] (Homo sapiens, A2780cis) was 230 ± 20 nM; in series [9], 170 ± 40 nM; in series [10] (Homo sapiens, A2780, 96 h), 70 ± 10 nM; in [13] (64 h, 48 h + 16 h resazurin), 199 ± 15 nM; in [11] (chloroquine-resistant strain K1, 48 h, mean ± SE), 150 ± 30 nM. Further, the concentration for an effect of 90% (IC90) in series [13] amounted to 256 ± 6 nM.

In the case of `N.N.[Cl][Pt][Cl]` [Cisplatin, reference compound], the IC50 in series [12] amounted to 24700 ± 2750 nM; in series [10] (96 h) it was 3470 ± 2200 nM.
